Reference: patent US6472351B1, “Herbicide” (Barrier Biotech Limited, priority 1998, dated 2002)

System: ragwort
Experiment: Replicated field trials 1997, ragwort control 0-10 score versus 2,4-D (Example 3)
Type: in vivo, Senecio Jacobaea
Conditions: for 0-10 Score, 0 = No Control; T1 + 42 / 0-10 Score, 0 = No Control; T1 + 14 / 0-10 Score, 0 = No Control; T1 + 28 / 0-10 Score, 0 = No Control; T1 + 1 / 0-10 Score, 0 = No Control; T1 + 7: l/ha 2,4-D standard; for 0-10 Score, 0 = No Control; T1 + 42: scored 02/09/97; for 0-10 Score, 0 = No Control; T1 + 28: scored 19/08/97
Experimental: In 1997 properly replicated field evaluations of the efficacy of the composition according to the invention as a herbicide were carried out and 3 trial sites were located where the composition was tested against the standard product, 2, 4-D applied at a dose of 3.0 l/ha to individual plants. The trials were designed as a randomised complete block but within each “plot” area, 10 ragwort plants for each growth stage (rosette & flowing stems) were tagged with numbered markers and these were treated with the appropriate compound. […] This method reduced the risk of excessive run-off if eight squirts had been applied in a single application. […] As with the larger plants in the laboratory tests, some degree of re-growth was noted on a few of the treated plants. After the last assessments had been made, some of these plants were retreated with a second application of BH 99 and the effect was compared with untreated plants after a further 4 weeks which data is presented in the results section below.
In all evaluations the composition BH 99 was used comprising:
was applied to plants using the same equipment. The ready-mixed formulated product was contained in a 5 liter polyethylene bottle to which was fitted with a Frapak CHS-5A trigger sprayer and dip tube. This equipment delivers 2.4 mls of spray for each full squeeze of the trigger and provides a very convenient method of application.
In the replicated field trials in 1997, the 2, 4-D treatments were applied using a Hardy (backpack) small plot sprayer fitted with a lance carrying a single F110-03 nozzle. Individual plants were sprayed at a forward speed of 1.6 m/s and a pressure of 2 bar to give an application volume of 200 l/ha. Dose of 2, 4-D applied by this method was 3.0 l/ha.
Replicated Field Trials, 1997: The efficacy of BH 99 was tested against ragwort at the rosette and flowering stages at Shropham and Barnham sites but only against the rosette stage at Hockham since no flowering stems were presented.

[1] = Barnham, Flower, applied T1 23/07/97
[2] = Barnham, Rosette, applied T1 23/07/97
[3] = Hockham, Rosette, applied T1 25/07/97
[4] = flowering stage, standard at 3.0 l/ha, mean of n = 2 sites, 0-10 score
[5] = rosette stage, standard at 3.0 l/ha, mean of n = 3 sites, 0-10 score

## O=C(O)COc1ccc(Cl)cc1Cl [2,4-D, 2,4-D]
3.0 l/ha, days after application
  Time until full activity manifest: 42 days
[1]
  0-10 Score, 0 = No Control; T1 + 42: 9.4
  0-10 Score, 0 = No Control; T1 + 28: 8.9
Barnham, Flower, applied T1 23/07/97, scored 08/08/97
  0-10 Score, 0 = No Control; T1 + 14: 7.3
Barnham, Flower, applied T1 23/07/97, scored 24/07/97
  0-10 Score, 0 = No Control; T1 + 1: 0.3
Barnham, Flower, applied T1 23/07/97, scored 30/07/97
  0-10 Score, 0 = No Control; T1 + 7: 1
[2]
  0-10 Score, 0 = No Control; T1 + 42: 9.9
  0-10 Score, 0 = No Control; T1 + 28: 9.1
Barnham, Rosette, applied T1 23/07/97, scored 08/08/97
  0-10 Score, 0 = No Control; T1 + 14: 4.8
Barnham, Rosette, applied T1 23/07/97, scored 24/07/97
  0-10 Score, 0 = No Control; T1 + 1: 0.1
Barnham, Rosette, applied T1 23/07/97, scored 30/07/97
  0-10 Score, 0 = No Control; T1 + 7: 0.8
Hockham, Rosette, applied T1 25/07/97, scored 01/08/97
  0-10 Score, 0 = No Control; T1 + 7: 0.4
[3]
  0-10 Score, 0 = No Control; T1 + 42: 9.8
  0-10 Score, 0 = No Control; T1 + 28: 5.2
Hockham, Rosette, applied T1 25/07/97, scored 07/08/97
  0-10 Score, 0 = No Control; T1 + 14: 0.8
Hockham, Rosette, applied T1 25/07/97, scored 26/07/97
  0-10 Score, 0 = No Control; T1 + 1: 0.1
[4]
  Mean Score for Ragwort Control When Treated at the Flowering Stage, 1 DAT: 0.3
  Mean Score for Ragwort Control When Treated at the Flowering Stage, 7 DAT: 0.8
  Mean Score for Ragwort Control When Treated at the Flowering Stage, 14 DAT: 4.9
  Mean Score for Ragwort Control When Treated at the Flowering Stage, 28 DAT: 7.4
  Mean Score for Ragwort Control When Treated at the Flowering Stage, 42 DAT: 8.4
[5]
  Mean Score for Ragwort Control When Treated at the Rossette Stage, 1 DAT: 0.1
  Mean Score for Ragwort Control When Treated at the Rossette Stage, 7 DAT: 0.5
  Mean Score for Ragwort Control When Treated at the Rossette Stage, 14 DAT: 2.1
  Mean Score for Ragwort Control When Treated at the Rossette Stage, 28 DAT: 6.9
  Mean Score for Ragwort Control When Treated at the Rossette Stage, 42 DAT: 9.4
